Data: patent publication US20230090708A1, “METHODS AND COMPOSITIONS FOR THE TREATMENT OF HEMANGIOMA” (MASSEY VENTURES LIMITED, priority 2020, published 2023)
≈ marks a conversion by molar mass, not a printed value. Read-outs that look alike come from different tables or passages of the source.

Assays:
[1] = tested on: proliferating hemangioma cells; assay: Experiment 7: different ACEi and beta blockers on one primary cell line, MTT; assay type: cell-based, human; conditions: for inhibition of proliferating hemangioma cells: 1 μM and 10 μM; for Results Summary: 72 hours, one cell line; for inhibition at 1 µM / inhibition at 10 µM: Homo sapiens, 72 h, read-out: Inhibition vs. Cells + Adjuvant at 72 Hours
Description: (§1) An in vitro cell culture model of infantile hemangioma was developed to assess the impact of renin-angiotensin system inhibitors on cellular proliferation. A primary cell line of proliferating infantile hemangioma cells, including haemangioma stem cells, was derived from a tissue biopsy obtained from patients during the proliferating phase of the disease. The primary cell lines are cultured in 25 cm^2 flasks using standard culture media and conditions. The cultured cells are used to seed 96-well plates with a seed cell concentration of 2500 or 5000 cells per well, with additional culture media (200 μL). All studies are performed in triplicate.
The plates are incubated overnight to allow cell adherence to the wells. The wells are photographed to confirm cell adherence and confluency. The appropriate drug(s) to be examined are subsequently added to the wells. […] The media is aspirated from each well and stored frozen for possible future analyses. Media is added to the wells and an MTT determination is undertaken according to standard protocols.
(§2) From the triplicate incubations of each drug concentration at each time, as well as for all controls, the mean±standard deviation is calculated. The net survival (optical density value) is calculated by subtracting the appropriate blank mean value from each cell culture. From the MTT data, the percentage of survival of cells in the presence of each concentration of drug after each time of culturing is determined.
Briefly, cells were seeded in 96-well plates at concentrations of 2500 cells/well in triplicate for each drug and drug combination. […] All plates were performed in triplicate. Beta blockers used in the study were (±)-propranolol, R-propranolol, S-propranolol, timolol, and betaxalol.

proliferating IH = conditions: cited from earlier work
[2] = cited from earlier work
[3] = tested on: proliferating infantile hemangioma cells derived from multiple patients (n=5); assay: Example 4: single agents and combinations on five patient-derived cell lines, MTT; assay type: cell-based, human; conditions: for Individual Responders at 72 Hours with ≥30% Inhibition vs. Cells + Adjuvant: responders/cell lines; for Results Summary: 72 hours, n=5 cell lines; for Estimated Optimal Dosage Range in vitro / inhibition of all five patient-derived haemangioma cell lines: single agent
Description: An in vitro cell culture model of infantile hemangioma was developed to assess the impact of renin-angiotensin system inhibitors on cellular proliferation. A primary cell line of proliferating infantile hemangioma cells, including haemangioma stem cells, was derived from a tissue biopsy obtained from patients during the proliferating phase of the disease. The primary cell lines are cultured in 25 cm^2 flasks using standard culture media and conditions. The cultured cells are used to seed 96-well plates with a seed cell concentration of 2500 or 5000 cells per well, with additional culture media (200 μL). All studies are performed in triplicate. The plates are incubated overnight to allow cell adherence to the wells. The wells are photographed to confirm cell adherence and confluency. The appropriate drug(s) to be examined are subsequently added to the wells. After 24 hours, one set of plates (experimental and blank) is stopped. The media is aspirated from each well and stored frozen for possible future analyses. Media is added to the wells and an MTT determination is undertaken according to standard protocols. This is repeated at 48 and 72 hours. From the triplicate incubations of each drug concentration at each time, as well as for all controls, the mean±standard deviation is calculated. The net survival (optical density value) is calculated by subtracting the appropriate blank mean value from each cell culture. From the MTT data, the percentage of survival of cells in the presence of each concentration of drug after each time of culturing is determined. […] The experimental protocol was performed as per Example 1. Briefly, cells were seeded in 96-well plates at a concentration of 2500 cells/well in triplicate for each drug and drug combination. Drug(s) were added to each well 24 hours after seeding and re-dosed every 24 hours. Cell viability was assessed by MTT assay after 24, 48, and 72 hours. All plates were performed in triplicate. Drugs were assessed alone and in combination as described in Table 3.

[4] = cited from earlier work; for Log P: Table 1
[5] = cited from earlier work; remark: listed apart in the source
[6] = cited from earlier work; for Half life: short or long acting: in words; for Half life: in vivo
[7] = tested on: proliferating hemangioma cells; assay: Example 5: R- and S-beta blockers alone and with cilazapril, MTT; assay type: cell-based, human
Description: An in vitro cell culture model of infantile hemangioma was developed to assess the impact of renin-angiotensin system inhibitors on cellular proliferation. A primary cell line of proliferating infantile hemangioma cells, including haemangioma stem cells, was derived from a tissue biopsy obtained from patients during the proliferating phase of the disease. The primary cell lines are cultured in 25 cm^2 flasks using standard culture media and conditions. The cultured cells are used to seed 96-well plates with a seed cell concentration of 2500 or 5000 cells per well, with additional culture media (200 μL). All studies are performed in triplicate. The plates are incubated overnight to allow cell adherence to the wells. The wells are photographed to confirm cell adherence and confluency. The appropriate drug(s) to be examined are subsequently added to the wells. After 24 hours, one set of plates (experimental and blank) is stopped. The media is aspirated from each well and stored frozen for possible future analyses. Media is added to the wells and an MTT determination is undertaken according to standard protocols. This is repeated at 48 and 72 hours. From the triplicate incubations of each drug concentration at each time, as well as for all controls, the mean±standard deviation is calculated. The net survival (optical density value) is calculated by subtracting the appropriate blank mean value from each cell culture. From the MTT data, the percentage of survival of cells in the presence of each concentration of drug after each time of culturing is determined. The experimental protocol was performed as per Example 1. Briefly, cells were seeded in 96-well plates at concentrations of 2500 cells/well in triplicate for each drug and drug combination. Drug(s) were added to each well 24 hours after seeding and re-dosed every 24 hours. Cell viability was assessed by MTT assay after 24, 48, and 72 hours. All plates were performed in triplicate. […] Timolol and propranolol were used as model beta blockers and cilazapril as a model ACE inhibitor.

[8] = tested on: proliferating hemangioma cell lines (n=9); assay: Example 6: single agents and combinations on nine primary cell lines, MTT, CompuSyn combination index; assay type: cell-based, human; conditions: for dose-response across all cell lines: 1 to 10 μM, 72 hours, n=9
Description: as §1
The plates are incubated overnight to allow cell adherence to the wells. The wells are photographed to confirm cell adherence and confluency. The appropriate drug(s) to be examined are subsequently added to the wells. After 24 hours, one set of plates (experimental and blank) is stopped. The media is aspirated from each well and stored frozen for possible future analyses. Media is added to the wells and an MTT determination is undertaken according to standard protocols. This is repeated at 48 and 72 hours.
as §2
A study was undertaken using combinations of ACE inhibitors, beta blockers and angiotensin II type 2 receptor blockers to inhibit proliferating hemangioma cells. […] Patient histories pertaining to each cell line is described in Table 5.
The experimental protocol was performed as per Example 1. Briefly, cells were seeded in 96-well plates at concentrations of 2500 cells/well in triplicate for each drug and drug combination. Drug(s) were added to each well 24 hours after seeding and re-dosed every 24 hours. Cell viability was assessed by MTT assay after 24, 48, and 72 hours. All plates were performed in triplicate. Drugs were assessed alone and in combination, as described in Table 6. Propranolol was used as a model beta blocker, cilazapril as a model ACE inhibitor, and SMM02 (L-159686) as a model AT2Ri. Synergy was measured using the CompuSyn open-source software protocol for quantifying synergism and antagonism that uses the median-effect equation and mass-action laws to generate a combination index (www.compusyn.com). Synergism, additive effects and antagonism are defined as a CI<1, CI=1, and CI>1, respectively.

CC(C)NCC(O)COc1ccc(CCOCC2CC2)cc1 (stereo not shown) [Betaxolol]
inhibition of proliferating hemangioma cells [1]: no response | Results Summary [1]: Non- | inhibition at 1 µM ([1]; 1 μM): 2.8% | inhibition at 10 µM ([1]; 10 μM): < 0%

C[C@H](CS)C(=O)N1CCC[C@H]1C(=O)O [Captopril]
patients with response scored dramatic (proliferating IH; n of eight patients): 3 | patients with response scored medium (proliferating IH; n of eight patients): 2 | patients with response scored slow (proliferating IH; n of eight patients): 3 | effect on proliferating IH (proliferating IH; oral 1.5 mg/kg daily, eight patients): positive effect in all patients | rebound growth after treatment ceased (proliferating IH; treatment ceased after 14 months): no rebound growth | Solubility [2]: 130 mg/mL (≈ 598 mM)

COc1ccc2c(c1OCc1ccccc1)C[C@@H](C(=O)O)N(C(=O)C(c1ccccc1)c1ccccc1)C2 [EMA401, (S)-5-(benzyloxy)-2-(2,2-diphenylacetyl)-6-methoxy-1,2,3,4-tetrahydroisoquinoline-3-carboxylic acid]
Individual Responders at 72 Hours with ≥30% Inhibition vs. Cells + Adjuvant ([3]; 1 μM): 1 μM - ¼ | Individual Responders at 72 Hours with ≥30% Inhibition vs. Cells + Adjuvant ([3]; 10 μM): 10 μM - 4/5 | Individual Responders at 72 Hours with ≥30% Inhibition vs. Cells + Adjuvant ([3]; 100 μM): 100 μM - 5/5 | Results Summary [3]: Responder | Estimated Optimal Dosage Range in vitro [3]: 5 to 25 µM | inhibition of all five patient-derived haemangioma cell lines [3]: significantly inhibited

CCOC(=O)[C@H](CCc1ccccc1)N[C@@H](C)C(=O)N1CCC[C@H]1C(=O)O [Enalapril]
inhibition of proliferating hemangioma cells [1]: good and similar level of inhibition | Results Summary [1]: Responder | inhibition at 1 µM ([1]; 1 μM): 1.55% | inhibition at 10 µM ([1]; 10 μM): 67.9% | Log P [4]: 0.07 | pKa [5]: 2.97 | pKa ([5]; second value): 5.35 | Half life: short or long acting [6]: Long acting

CCCCc1nc(Cl)c(CO)n1Cc1ccc(-c2ccccc2-c2nn[nH]n2)cc1 [Losartan]
Individual Responders at 72 Hours with ≥30% Inhibition vs. Cells + Adjuvant ([3]; 1 μM): 1 μM - 0/5 | Individual Responders at 72 Hours with ≥30% Inhibition vs. Cells + Adjuvant ([3]; 10 μM): 10 μM - 0/5 | Results Summary [3]: Non-Responder | inhibition of all five patient-derived haemangioma cell lines [3]: not

CCOC(=O)[C@H](CCc1ccccc1)N[C@@H](C)C(=O)N1Cc2ccccc2C[C@H]1C(=O)O [Quinapril]
inhibition of proliferating hemangioma cells [1]: good and similar level of inhibition | Results Summary [1]: Responder | inhibition at 1 µM ([1]; 1 μM): 4.87% | inhibition at 10 µM ([1]; 10 μM): 62.3% | Log P [4]: 3.2 | log P [4]: 3.2 | pKa [5]: 3.7 | pKa ([5]; second value): 5.2 | Half life: short or long acting [6]: Short acting

C[C@H](N[C@@H](CCc1ccccc1)C(=O)O)C(=O)N1Cc2ccccc2C[C@H]1C(=O)O [Quinaprilat, quinaprilat]
Half life [6]: 3 h (quinaprilat)

CC(C)NC[C@@H](O)COc1cccc2ccccc12 [R(+) Propranolol, R-propranolol]
Estimated Optimal Dosage Range [1]: 1 to 10 µM | Inhibition vs. Cells + Adjuvant at 72 Hours ([1]; 1 μM): 1 μM - No - 1.59% | Inhibition vs. Cells + Adjuvant at 72 Hours ([1]; 10 μM): 10 μM - Response - 50.35% | Results Summary [1]: Responder | individual isomers compared with the racemic mixture ([7]; alone): as effective alone as the racemic mixture | attenuating hemangioma cell proliferation, propranolol vs timolol enantiomers ([7]; particularly at 1-5 μM): superior to R- and S-timolol | dose-response across all cell lines [8]: typical dose-response

C[C@H](N[C@@H](CCc1ccccc1)C(=O)O)C(=O)N1[C@H](C(=O)O)C[C@@H]2CCC[C@@H]21 [Ramiprilat, ramiprilat]
Half life [6]: 13 to 17 h

O=C(O)[C@@H]1CN(C(=O)N(c2ccccc2)c2ccccc2)CCN1C(=O)N(c1ccccc1)c1ccccc1 [SMM02, (S)-1,4-bis(N,N-diphenylcarbamoyl)piperazine-2-carboxylic acid]
Individual Responders at 72 Hours with ≥30% Inhibition vs. Cells + Adjuvant ([3]; 1 μM): 1 μM - 0/4 | Individual Responders at 72 Hours with ≥30% Inhibition vs. Cells + Adjuvant ([3]; 10 μM): 10 μM - 5/5 | Individual Responders at 72 Hours with ≥30% Inhibition vs. Cells + Adjuvant ([3]; 100 μM): 100 μM - 5/5 | Results Summary [3]: Responder | Estimated Optimal Dosage Range in vitro [3]: 1 to 10 µM | inhibition of all five patient-derived haemangioma cell lines [3]: significantly inhibited | dose-response across all cell lines [8]: non-linear dose-response | threshold concentration ([8]; single agent, consistent inhibition above it): 2.5 µM

CCOC(=O)[C@H](CCc1ccccc1)N[C@@H](C)C(=O)N1[C@H](C(=O)O)C[C@H]2CCCC[C@@H]21 [Trandolapril]
inhibition of proliferating hemangioma cells [1]: good and similar level of inhibition | Results Summary [1]: Responder | inhibition at 1 µM ([1]; 1 μM): 0.63% | inhibition at 10 µM ([1]; 10 μM): 67.8% | Log P [4]: 3.5 | log P [4]: 3.5 | pKa [5]: 3.8 | pKa ([5]; second value): 5.2 | Half life [6]: 6 h | Half life: short or long acting [6]: Long acting

C[C@H](N[C@@H](CCc1ccccc1)C(=O)O)C(=O)N1[C@H](C(=O)O)C[C@H]2CCCC[C@@H]21 [Trandolaprilat, trandolaprilat]
Half life [6]: 10 h

O=C(O)CN1C(=O)[C@@H](N[C@@H](CCc2ccccc2)C(=O)O)CCc2ccccc21 [benazeprilat]
Half life [6]: 10 to 11 h

C[C@H](N[C@@H](CCc1ccccc1)C(=O)O)C(=O)N1CCC[C@H]1C(=O)O [enalaprilat]
Half life [6]: 11 h (enalaprilat)
